Experimental data: patent publication US12678424B2, “Method for preventing and/or treating systemic inflammation” (THE BOARD OF TRUSTEES OF THE LELAND STANFORD JUNIOR …, priority 2015, dated 2026)

Experiments:
Type in all cases: in vivo, mice (C57BL6)
[1] = tested on: microglia; test: Flow cytometry of brain microglia for Slc2al expression and 2-NBDG glucose uptake in older mice; settings: 25 mg/kg oral 3 times a week for 15 weeks from 37 weeks of age, vs vehicle-treated older mice, p<0.05
Method: All animal studies were conducted under protocols approved by APLAC from Stanford University. Older and young animals on C57BL6 background were purchased from Taconic. Older animals are defined as those above 36 weeks of age, when physiological aging process accelerates in mice, while young counterparts are 20 weeks of age. Data are presented as mean±SEM. Two-tailed Student's t-test and two-way ANOVA were used for statistical analyses. A p value of <0.05 is considered to be statistically significant. Older animals were orally treated 3 times a week for 15 weeks with 0.5% methylcellulose (vehicle) or ZLN005 (Sigma) at 25 mg/kg in vehicle, starting at 37 weeks of age. Treated older animals (n=6), non-treated older animals (n=6), and young animals (20 weeks old, n=6) were sacrificed after drug treatment and their brain tissues collected. PBS-perfused brain tissues of sacrificed animals were digested with Collagenase I and processed for flow cytometry (Ginhoux et al Science, 330:841-5, 2010). Brain microglia were phenotyped with 2-NBDG (2-(N-(7-nitrobenz-2-oxa-1,3-diazol-4-yl)amino)-2-deoxyglucose, Invitrogen) and anti-Slc2al antibody (RnD) for flow cytometric acquisition (LSRII, BD) and analysis (FlowJo). The results are summarized in FIG. 1: Y-axis represents % of microglia that either express glucose transporter Slc2al or have taken up glucose fluorescent analog 2-NBDG. […]

[2] = tested on: microglia; test: Flow cytometry of brain microglia for CCL2 and TNF-α production in older mice; settings: 25 mg/kg oral 3 times a week for 15 weeks from 37 weeks of age, vs vehicle-treated older mice
Method: (§1) All animal studies were conducted under protocols approved by APLAC from Stanford University. Older and young animals on C57BL6 background were purchased from Taconic. Older animals are defined as those above 36 weeks of age, when physiological aging process accelerates in mice, while young counterparts are 20 weeks of age. Data are presented as mean±SEM. Two-tailed Student's t-test and two-way ANOVA were used for statistical analyses. A p value of <0.05 is considered to be statistically significant. Older animals were orally treated 3 times a week for 15 weeks with 0.5% methylcellulose (vehicle) or ZLN005 (Sigma) at 25 mg/kg in vehicle, starting at 37 weeks of age. Treated older animals (n=6), non-treated older animals or aged animals (n=6), and young animals (20 weeks old, n=6) were sacrificed after drug treatment and their brain tissues were collected. PBS-perfused brain tissues of sacrificed animals were digested with Collagenase I and processed for flow cytometry (Ginhoux et al Science. 330:841-5.2010). Brain microglia were phenotyped with fluorochrome-labeled antibodies to CCL2 and TNF-α (Biolegend) for flow cytometric acquisition (LSRII. BD) and analysis (FlowJo). The results are summarized in FIG. 2: Y-axis represents % of microglia that express CCL2 or TNF-α. ANOVA was used for statistical analysis. […]

[3] = tested on: TNF-α; test: Serum TNF-α by ELISA in older mice (systemic inflammation); settings: 25 mg/kg oral 3 times a week for 15 weeks, vs vehicle-treated older mice, p<0.05
Method: as §1, with “TNF-α levels” for “The results are summarized”, “serum” for “FIG. 2: Y-axis represents %”, “young mice, vehicle-treated older mice, and ZLN-treated older mice (from Example 2) were measured by ELISA to determine TNF-α levels which indicated systemic inflammation.” for “microglia that express CCL2 or TNF-α. ANOVA was used for statistical analysis.”

[4] = Marble burying assay in older mice; settings: older mice at 52 weeks of age, 25 mg/kg oral 3 times a week for 15 weeks, 12 marbles, 30 minutes, vs vehicle-treated older mice, p<0.05
Method: All animal studies were conducted under protocols approved by APLAC from Stanford University. Older and young animals on C57BL6 background were purchased from Taconic. Older animals are defined as those above 36 weeks of age, when physiological aging process accelerates in mice, while young counterparts are 20 weeks of age. Data are presented as mean±SEM. Two-tailed Student's t-test and two-way ANOVA were used for statistical analyses. A p value of <0.05 is considered to be statistically significant.
Animals were orally treated 3 times a week for 15 weeks with 0.5% methylcellulose (vehicle) or ZLN005 (Sigma) at 25 mg/kg in vehicle, starting at 37 weeks of age. At 52 weeks of age, the older animals were subjected to a marble burying assay, a behavioral test of anxiety (Dekeyne A. Therapie. 60:477-84.2005). Each animal was given 12 marbles on top of bedding in individual cage and allowed to run free in the cage for 30 minutes. After this period of time, each buried marble was individually assigned a number based on its degree of being buried (1=90-100% hidden, 0.75=60-90% hidden, 0.5=30-60% hidden, 0=below 30% hidden), and then the sum of the numbers of 12 marbles buried by each mouse is calculated as the marble burying score of the mouse. […] Unpaired t-test was used for statistical analysis.

For CC(C)(C)c1ccc(-c2nc3ccccc3[nH]2)cc1 [ZLN005, 2-(4-tert-Butylphenyl)-1H-benzimidazole], the “% of microglia that express glucose transporter Slc2al” value [1] was “decreased”, the “% of microglia that have taken up glucose fluorescent analog 2-NBDG (glucose uptake)” value [1] was “decreased” and the “% of microglia that express CCL2” value ([2]; p<0.01) was “decreased”. The “% of microglia that express TNF-α” value ([2]; p<0.05) was “decreased”, the “concentration of TNF-α in serum” value [3] was “decreased” and the marble burying score [4] was “reduced the anxiety phenotype”.
